From patent US4345938A, “Herbicidal 2-haloacetanilides” (Monsanto Company, priority 1980, dated 1982)
Read-outs that look alike come from different tables or passages of the source.

How the values were obtained:
Format in all cases: in vivo
Echinochloa crus-galli = assay: Field transplant rice test, applied 9 DAT, EC; conditions: for inhibition at 375 g/ha / inhibition at 750 g/ha / inhibition at 1500 g/ha / inhibition at 3000 g/ha: Echinochloa crus-galli, 216 h, read-out: Percent Inhibition, EC; for inhibition at 375 g/ha: 0.375 Kg/Ha; for inhibition at 750 g/ha: 0.75 Kg/Ha; for inhibition at 1500 g/ha: 1.5 Kg/Ha; for inhibition at 3000 g/ha: 3.0 Kg/Ha; for selectivity factor (GR15/GR85), EC in transplant rice: between 3 WAT and 7 WAT
From the text: (§1) In the discussion of data below, occasional reference is made to herbicide application rates symbolized as "GR15 " and "GR85 "; these rates are given in kilograms per hectare (kg/ha) which are convertible into pounds per acre (lbs/A) by dividing the kg/ha rate by 1.12.
(§2) A further guide to the effectiveness of a chemical as a selective herbicide is the "selectivity factor" ("SF") for a herbicide in given crops and weeds. The selectivity factor is a measure of the relative degree of crop safety and weed injury and is expressed in terms of the GR15 /GR85 ratio, i.e., the GR15 rate for the crop divided by the GR85 rate for the weed, both rates in kg/ha (lb/A.)
(§3) The test data in Table III for all compounds was obtained under identical test conditions. The weeds used in the tests herein have the following abbreviations in the tables: Echinochloa crus-galli (EC), Monochloria vaginalis (MV), Cyperus Serotinus (CS), Eleocharis Kuroguwai (EK) and Sagittaria trifolia (ST).
(§4) In further comparative tests, a preferred compound of this invention (Example 1) was tested in the field with prior art Compounds A-D. These tests were conducted under conditions reflecting herbicide application times generally favorable to all herbicides in the test. The timing of application of herbicides to transplant rice is very important, whether, as in some instances, prior to transplanting the rice; in other instances, at the time of transplanting or else after transplanting. Application times are conventionally referred to as "days before transplant" (DBT) or "days after transplant" ("DAT"). The field test data in Table IV was obtained from a test in which the herbicides were applied at the time of transplant, i.e., "0 DAT", with observations being made weekly up to six weeks after transplant ("WAT") beginning at two weeks after transplant; for illustrative and representative purposes, only the early, middle and late period observations, i.e., 2 WAT, 4 WAT and 6 WAT, are shown in Table IV. The data in Table IV is for rates of application common to all herbicides in the test, i.e., from 3.0 kg/ha (2.67 lb/A) down to 0.375 kg/ha (0.34 lb/A). All herbicides were applied at their actual or expected use rates, i.e., as granules containing 2.5% by weight herbicide for the compound of Example 1, Compounds B, C and D and 5.0% by weight for Compound A.
(§5) In Table V are presented field data showing the relative performance of the compound of Example 1 and Compounds A-D applied 9 DAT, with observations being made weekly from 3 WAT to 7 WAT; again, for illustrative and representative purposes, only the early, middle and late period observations are reported in Table V, the herbicide rates and concentrations of active ingredients the same as is shown in Table IV.

Cyperus serotinus = assay: Field transplant rice test, applied 0 DAT, CS; conditions: 0 h, read-out: Percent Inhibition, CS; for inhibition at 375 g/ha: 0.375 Kg/Ha; for inhibition at 750 g/ha: 0.75 Kg/Ha; for inhibition at 1500 g/ha: 1.5 Kg/Ha; for inhibition at 3000 g/ha: 3.0 Kg/Ha
Method: as §3, §4

Eleocharis kuroguwai = assay: Field transplant rice test, applied 9 DAT, EK; conditions: for inhibition at 375 g/ha / inhibition at 750 g/ha / inhibition at 1500 g/ha / inhibition at 3000 g/ha: Eleocharis kuroguwai, 216 h, read-out: Percent Inhibition, EK; for inhibition at 375 g/ha: 0.375 Kg/Ha; for inhibition at 750 g/ha: 0.75 Kg/Ha; for inhibition at 1500 g/ha: 1.5 Kg/Ha; for inhibition at 3000 g/ha: 3.0 Kg/Ha
From the text: as §1, §2, §3, §4, §5

Monochoria vaginalis = assay: Field transplant rice test, applied 9 DAT, MV; conditions: for inhibition at 375 g/ha / inhibition at 750 g/ha / inhibition at 1500 g/ha / inhibition at 3000 g/ha: Pontederia vaginalis, 216 h, read-out: Percent Inhibition, MV; for inhibition at 375 g/ha: 0.375 Kg/Ha; for inhibition at 750 g/ha: 0.75 Kg/Ha; for inhibition at 1500 g/ha: 1.5 Kg/Ha; for inhibition at 3000 g/ha: 3.0 Kg/Ha; for selectivity factor (GR15/GR85), MV in transplant rice: between 3 WAT and 7 WAT
From the text: as §1, §2, §3, §4, §5

CCCCOCN(C(=O)CCl)c1c(C)cccc1C(C)(C)C [Compound C, 2'-methyl-6'-tert-butyl-N-(n-butoxymethyl)-2-chloroacetanilide]
inhibition at 375 g/ha (Echinochloa crus-galli; 3 WAT): 82% | inhibition at 375 g/ha (Echinochloa crus-galli; 5 WAT): 78% | inhibition at 375 g/ha (Echinochloa crus-galli; 7 WAT): 82% | inhibition at 750 g/ha (Echinochloa crus-galli; 3 WAT): 92% | inhibition at 750 g/ha (Echinochloa crus-galli; 5 WAT): 95% | inhibition at 750 g/ha (Echinochloa crus-galli; 7 WAT): 97% | inhibition at 1500 g/ha (Echinochloa crus-galli; 3 WAT): 98% | inhibition at 1500 g/ha (Echinochloa crus-galli; 5 WAT): 100% | inhibition at 1500 g/ha (Echinochloa crus-galli; 7 WAT): 100% | inhibition at 3000 g/ha (Echinochloa crus-galli; 3 WAT): 98% | inhibition at 3000 g/ha (Echinochloa crus-galli; 5 WAT): 100% | inhibition at 3000 g/ha (Echinochloa crus-galli; 7 WAT): 100% | selectivity factor (GR15/GR85), EC in transplant rice (Echinochloa crus-galli): 4 | inhibition at 375 g/ha (Cyperus serotinus; 2 WAT): 93% | inhibition at 375 g/ha (Cyperus serotinus; 4 WAT): 92% | inhibition at 375 g/ha (Cyperus serotinus; 6 WAT): 72% | inhibition at 750 g/ha (Cyperus serotinus; 2 WAT): 70% | inhibition at 750 g/ha (Cyperus serotinus; 4 WAT): 82% | inhibition at 750 g/ha (Cyperus serotinus; 6 WAT): 77% | inhibition at 1500 g/ha (Cyperus serotinus; 2 WAT): 93% | inhibition at 1500 g/ha (Cyperus serotinus; 4 WAT): 99% | inhibition at 1500 g/ha (Cyperus serotinus; 6 WAT): 100% | inhibition at 3000 g/ha (Cyperus serotinus; 2 WAT): 95% | inhibition at 3000 g/ha (Cyperus serotinus; 4 WAT): 100% | inhibition at 3000 g/ha (Cyperus serotinus; 6 WAT): 100% | inhibition at 375 g/ha (Eleocharis kuroguwai; 3 WAT): 52% | inhibition at 375 g/ha (Eleocharis kuroguwai; 5 WAT): 23% | inhibition at 375 g/ha (Eleocharis kuroguwai; 7 WAT): 15% | inhibition at 750 g/ha (Eleocharis kuroguwai; 3 WAT): 75% | inhibition at 750 g/ha (Eleocharis kuroguwai; 5 WAT): 68% | inhibition at 750 g/ha (Eleocharis kuroguwai; 7 WAT): 32% | inhibition at 1500 g/ha (Eleocharis kuroguwai; 3 WAT): 70% | inhibition at 1500 g/ha (Eleocharis kuroguwai; 5 WAT): 77% | inhibition at 1500 g/ha (Eleocharis kuroguwai; 7 WAT): 38% | inhibition at 3000 g/ha (Eleocharis kuroguwai; 3 WAT): 83% | inhibition at 3000 g/ha (Eleocharis kuroguwai; 5 WAT): 93% | inhibition at 3000 g/ha (Eleocharis kuroguwai; 7 WAT): 74% | selectivity factor (GR15/GR85), EK in transplant rice (Eleocharis kuroguwai; at 5 WAT): greater than 1 | inhibition at 375 g/ha (Monochoria vaginalis; 3 WAT): 97% | inhibition at 375 g/ha (Monochoria vaginalis; 5 WAT): 98% | inhibition at 375 g/ha (Monochoria vaginalis; 7 WAT): 60% | inhibition at 750 g/ha (Monochoria vaginalis; 3 WAT): 100% | inhibition at 750 g/ha (Monochoria vaginalis; 5 WAT): 100% | inhibition at 750 g/ha (Monochoria vaginalis; 7 WAT): 100% | inhibition at 1500 g/ha (Monochoria vaginalis; 3 WAT): 100% | inhibition at 1500 g/ha (Monochoria vaginalis; 5 WAT): 100% | inhibition at 1500 g/ha (Monochoria vaginalis; 7 WAT): 100% | inhibition at 3000 g/ha (Monochoria vaginalis; 3 WAT): 100% | inhibition at 3000 g/ha (Monochoria vaginalis; 5 WAT): 100% | inhibition at 3000 g/ha (Monochoria vaginalis; 7 WAT): 100% | selectivity factor (GR15/GR85), MV in transplant rice (Monochoria vaginalis): 8

CCCCOCCN(C(=O)CCl)c1c(CC)cccc1CC [Compound B, 2',6'-diethyl-N-(n-butoxyethyl)-2-chloroacetanilide]
inhibition at 375 g/ha (Echinochloa crus-galli; 3 WAT): 57% | inhibition at 375 g/ha (Echinochloa crus-galli; 5 WAT): 55% | inhibition at 375 g/ha (Echinochloa crus-galli; 7 WAT): 47% | inhibition at 750 g/ha (Echinochloa crus-galli; 3 WAT): 68% | inhibition at 750 g/ha (Echinochloa crus-galli; 5 WAT): 53% | inhibition at 750 g/ha (Echinochloa crus-galli; 7 WAT): 50% | inhibition at 1500 g/ha (Echinochloa crus-galli; 3 WAT): 90% | inhibition at 1500 g/ha (Echinochloa crus-galli; 5 WAT): 80% | inhibition at 1500 g/ha (Echinochloa crus-galli; 7 WAT): 85% | inhibition at 3000 g/ha (Echinochloa crus-galli; 3 WAT): 95% | inhibition at 3000 g/ha (Echinochloa crus-galli; 5 WAT): 95% | inhibition at 3000 g/ha (Echinochloa crus-galli; 7 WAT): 92% | selectivity factor (GR15/GR85), EC in transplant rice (Echinochloa crus-galli): 2 | inhibition at 375 g/ha (Cyperus serotinus; 2 WAT): 62% | inhibition at 375 g/ha (Cyperus serotinus; 4 WAT): 55% | inhibition at 375 g/ha (Cyperus serotinus; 6 WAT): 3% | inhibition at 750 g/ha (Cyperus serotinus; 2 WAT): 70% | inhibition at 750 g/ha (Cyperus serotinus; 4 WAT): 53% | inhibition at 750 g/ha (Cyperus serotinus; 6 WAT): 12% | inhibition at 1500 g/ha (Cyperus serotinus; 2 WAT): 82% | inhibition at 1500 g/ha (Cyperus serotinus; 4 WAT): 83% | inhibition at 1500 g/ha (Cyperus serotinus; 6 WAT): 45% | inhibition at 3000 g/ha (Cyperus serotinus; 2 WAT): 72% | inhibition at 3000 g/ha (Cyperus serotinus; 4 WAT): 62% | inhibition at 3000 g/ha (Cyperus serotinus; 6 WAT): 37% | selectivity factor (GR15/GR85), EK in transplant rice (Eleocharis kuroguwai; 3 WAT): non-selective | inhibition at 375 g/ha (Eleocharis kuroguwai; 3 WAT): 27% | inhibition at 375 g/ha (Eleocharis kuroguwai; 5 WAT): 3% | inhibition at 375 g/ha (Eleocharis kuroguwai; 7 WAT): 0% | inhibition at 750 g/ha (Eleocharis kuroguwai; 3 WAT): 28% | inhibition at 750 g/ha (Eleocharis kuroguwai; 5 WAT): 5% | inhibition at 750 g/ha (Eleocharis kuroguwai; 7 WAT): 0% | inhibition at 1500 g/ha (Eleocharis kuroguwai; 3 WAT): 42% | inhibition at 1500 g/ha (Eleocharis kuroguwai; 5 WAT): 32% | inhibition at 1500 g/ha (Eleocharis kuroguwai; 7 WAT): 0% | inhibition at 3000 g/ha (Eleocharis kuroguwai; 3 WAT): 55% | inhibition at 3000 g/ha (Eleocharis kuroguwai; 5 WAT): 43% | inhibition at 3000 g/ha (Eleocharis kuroguwai; 7 WAT): 18% | inhibition at 375 g/ha (Monochoria vaginalis; 3 WAT): 100% | inhibition at 375 g/ha (Monochoria vaginalis; 5 WAT): 95% | inhibition at 375 g/ha (Monochoria vaginalis; 7 WAT): 77% | inhibition at 750 g/ha (Monochoria vaginalis; 3 WAT): 97% | inhibition at 750 g/ha (Monochoria vaginalis; 5 WAT): 98% | inhibition at 750 g/ha (Monochoria vaginalis; 7 WAT): 88% | inhibition at 1500 g/ha (Monochoria vaginalis; 3 WAT): 98% | inhibition at 1500 g/ha (Monochoria vaginalis; 5 WAT): 100% | inhibition at 1500 g/ha (Monochoria vaginalis; 7 WAT): 100% | inhibition at 3000 g/ha (Monochoria vaginalis; 3 WAT): 100% | inhibition at 3000 g/ha (Monochoria vaginalis; 5 WAT): 100% | inhibition at 3000 g/ha (Monochoria vaginalis; 7 WAT): 97% | selectivity factor (GR15/GR85), MV in transplant rice (Monochoria vaginalis): 8
